Where two headings read alike, the source gives them in different places.
Columns and labels:
[1] = system: SARS-CoV-2-GHB-03021/2020; test: microbe, parasite or virus in culture; format: cell-based; settings: Severe acute respiratory syndrome coronavirus 2, Vero C1008, 96 h; read-out: VeroE6 + CP (EC50)
HRV3C = HRV3C (Human rhinovirus 14, UniProt P03303); test: HRV3C protease assay (duplex, SAMDI-MS); format: biochemical, HRV; settings: 30 mins preincubation
Outline: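 Enzyme preincubated 30 min with compound at ambient temperature, then both biotinylated peptide substrates added (duplex with 3CLpro); 30 min reaction quenched with 0.5% formic acid (final). Product read by SAMDI-MS as product/internal-standard AUC ratio; IC50 from four-parameter fit.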

in vitro [2] = settings: human
human cathepsin L = molecular target: T1, human cathepsin L (Homo sapiens, UniProt P07711); test: cathepsin L assay; format: biochemical; settings: 10 pM human cathepsin L, Z-FR-AMC 2 μM, class symbols
T1 construct: purchased R&D Systems
Outline: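 Human cathepsin L at 10 pM was preincubated 30 min with compound, then reaction started with Z-FR-AMC (2 μM final). Fluorescence (355/460 nm) read every 2 min for 30 min; IC50 from four-parameter curve fit.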

[3] = Cytotoxicity plates without OC43 virus (cell-titer-glo); format: cell-based, human; settings: human; HeLa cells without OC43 virus, class symbols
Outline: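 HeLa cells seeded overnight, then treated with serially diluted compounds in 2% FBS EMEM, uninfected, in parallel with the OC43 antiviral plates. Incubated 6 days at 33 °C; viability read by CellTiter-Glo luminescence.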

in vitro [4] = settings: African green monkey, VeroE6 + CP (CC50), Vero E6-eGFP cells with CP-100356, absence of virus, MTS
3CLpro = 3CLpro (Severe acute respiratory syndrome coronavirus 2, UniProt P0DTD1); test: SARS-CoV-2 3CLpro protease assay (duplex, SAMDI-MS); format: biochemical; parameters: For the duplex assay, 3CLpro and HRV3C was added; settings: 3CLpro, 30 mins preincubation, class symbols; read-out: SARS-Cov-2 IC50
[5] = system: SARS-CoV-2-GHB-03021/2020; test: SARS-CoV-2 Infection Model in Huh7 Cells; format: cell-based; settings: Severe acute respiratory syndrome coronavirus 2, Huh-7, 96 h, SARS-CoV-2, day 4 p.i., MTS
[6] = system: human beta-coronavirus OC43; test: microbe, parasite or virus in culture; format: cell-based; settings: Betacoronavirus 1, OC43, HeLa, 144 h
[7] = HRV3C, class symbols, read-out: HRV IC50
[8] = OC43 in HeLa cells, 6 days at 33° C., class symbols, read-out: EC50
[9] = HRV3C, bound, read-out: HRV IC50

SMILES	EC50 [1] [µM]	IC50 (HRV3C; HRV IC50, HRV3C, bound) [µM]	CC50 (in vitro [2]) [µM]	IC50 (human cathepsin L) [µM]	CC50 at 6 days [3] [µM]	CC50 (in vitro [4]; numeric bounds) [µM]	IC50 (3CLpro) [µM]	EC50 ([5]; numeric bounds) [µM]	EC50 ([6]; OC43 in HeLa cells, 6 days at 33° C., bound, read-out: EC50) [µM]	EC50 ([5]; class symbols) [µM]	EC50 [6] [µM]	IC50 (HRV3C; [7]) [µM]	EC50 [6, 8] [µM]	IC50 (HRV3C; HRV IC50, HRV3C, class symbols) [µM]	CC50 (in vitro [4]; class symbols) [µM]	IC50 (HRV3C; [9]) [µM]
COc1cccc2[nH]c(C(=O)N3C[C@@H]4CCC[C@@H]4[C@H]3C(=O)N[C@H](C=O)CC3CCNS3(=O)=O)cc12 (stereo partly drawn) [Compound 142, (1S,3aR,6aS)—N-((2S)-1-(1,1-dioxidoisothiazolidin-5-yl)-3-oxopropan-2-yl)-2-(4-methoxy-1H-indole-2-carbonyl)octahydrocyclopenta[c]pyrrole-1-carboxamide]	> 50	> 10	> 10	≥ 10	> 10	> 50	0.2 to 2	> 10	> 10							
O=C1NCC[C@H]1C[C@H](NC(=O)[C@@H]1[C@H]2CCC[C@H]2CN1C(=O)c1cc2c(Cl)c(F)cc(F)c2[nH]1)C(=O)CO [Compound 143, (1S,3aR,6aS)-2-(4-chloro-5,7-difluoro-1H-indole-2-carbonyl)-N-[(2S)-4-hydroxy-3-oxo-1-[(3S)-2-oxopyrrolidin-3-yl]butan-2-yl]-hexahydro-1H-cyclopenta[c]pyrrole-1-carboxamide]	< 1	> 10	> 10	≥ 10	> 10	> 50	0.02 to 0.2			< 1	0.1 to 1					
O=C1NCC[C@H]1C[C@H](NC(=O)[C@@H]1[C@H]2CCC[C@H]2CN1C(=O)c1ccc(-c2ccccc2)[nH]1)C(=O)CO [Compound 144, (1S,3aR,6aS)—N-[(2S)-4-hydroxy-3-oxo-1-[(3S)-2-oxopyrrolidin-3-yl]butan-2-yl]-2-(5-phenyl-1H-pyrrole-2-carbonyl)-hexahydro-1H-cyclopenta[c]pyrrole-1-carboxamide]	< 1		> 10	≥ 10	> 10	> 50	0.02 to 0.2			1 to 10		2 to 20	0.1 to 1			
O=C(NC1CC1)C(=O)[C@H](C[C@@H]1CCNC1=O)NC(=O)[C@@H]1CC2(CCN1C(=O)c1cc3c(Cl)cccc3[nH]1)CC2 [Compound 145]	10 to 100		> 50	0.1 to 1	> 10	> 50	< 0.02			10 to 100		0.02 to 0.2	1 to 10			
Cc1ccc2[nH]c(C(=O)N3CCC4(CC4)C[C@H]3C(=O)N[C@@H](C[C@@H]3CCNC3=O)C(=O)C(=O)NC3CC3)cc2c1 [Compound 146]	1 to 10		> 10	1 to 10	> 10	> 50	< 0.02			1 to 10		2 to 20	0.1 to 1			
O=C(NC1CC1)C(=O)[C@H](C[C@@H]1CCNC1=O)NC(=O)[C@@H]1CC2(CCN1C(=O)c1cc3cc(F)ccc3[nH]1)CC2 [Compound 147]	10 to 100		> 50	≥ 10	> 10	> 50	< 0.02			10 to 100		2 to 20	0.1 to 1			
O=C(NC1CC1)C(=O)[C@H](C[C@@H]1CCNC1=O)NC(=O)[C@@H]1[C@H]2CCC[C@H]2CN1C(=O)c1cc2c(Cl)cc(Cl)cc2[nH]1 [Compound 148]	< 1		> 10	≥ 10	> 10	> 50	0.02 to 0.2			< 1		0.2 to 2	0.1 to 1			
CC(C)COCCNC(=O)C(=O)[C@H](C[C@@H]1CCNC1=O)NC(=O)[C@@H]1[C@H]2CCC[C@H]2CN1C(=O)c1cc2c(Cl)cc(Cl)cc2[nH]1 [Compound 149, (1S,3aR,6aS)-2-(4,6-dichloro-1H-indole-2-carbonyl)-N—((S)-4-((2-isobutoxyethyl)amino)-3,4-dioxo-1-((S)-2-oxopyrrolidin-3-yl)butan-2-yl)octahydrocyclopenta[c]pyrrole-1-carboxamide]	< 1		1 to 10	1 to 10	> 10		0.02 to 0.2			< 1	0.1 to 1			2 to 20	> 10	
COc1cccc2[nH]c(C(=O)N3C[C@@H]4CCC[C@@H]4[C@H]3C(=O)N[C@@H](C[C@@H]3CCNC3=O)C(=O)CO)c(F)c12 [Compound 151, (1S,3aR,6aS)-2-(3-fluoro-4-methoxy-1H-indole-2-carbonyl)-N—((S)-4-hydroxy-3-oxo-1-((S)-2-oxopyrrolidin-3-yl)butan-2-yl)octahydrocyclopenta[c]pyrrole-1-carboxamide]	10 to 100	> 10	> 50	≥ 10	> 10	> 50	0.02 to 0.2			1 to 10	1 to 10					
CC(F)(F)c1cccc2[nH]c(C(=O)N3C[C@@H]4CCC[C@@H]4[C@H]3C(=O)N[C@@H](C[C@@H]3CCNC3=O)C(=O)CO)cc12 [Compound 152, (1S,3aR,6aS)-2-[4-(1,1-difluoroethyl)-1H-indole-2-carbonyl]-N-[(2S)-4-hydroxy-3-oxo-1-[(3S)-2-oxopyrrolidin-3-yl]butan-2-yl]-hexahydro-1H-cyclopenta[c]pyrrole-1-carboxamide]	10 to 100		> 50	≥ 10	> 10	> 50	0.02 to 0.2			10 to 100			1 to 10			> 10
CNc1cccc2[nH]c(C(=O)N3C[C@@H]4CCC[C@@H]4[C@H]3C(=O)N[C@@H](C[C@@H]3CCNC3=O)C(=O)CO)cc12 [Compound 153, (1S,3aR,6aS)—N-[(2S)-4-hydroxy-3-oxo-1-[(3S)-2-oxopyrrolidin-3-yl]butan-2-yl]-2-[4-(methylamino)-1H-indole-2-carbonyl]-hexahydro-1H-cyclopenta[c]pyrrole-1-carboxamide]	10 to 100		> 10	≥ 10	> 10	> 50	0.02 to 0.2			10 to 100			1 to 10			> 10
CSc1cccc2[nH]c(C(=O)N3C[C@@H]4CCC[C@@H]4[C@H]3C(=O)N[C@@H](C[C@@H]3CCNC3=O)C(=O)CO)cc12 [Compound 154, (1S,3aR,6aS)—N—((S)-4-hydroxy-3-oxo-1-((S)-2-oxopyrrolidin-3-yl)butan-2-yl)-2-(4-(methylthio)-1H-indole-2-carbonyl)octahydrocyclopenta[c]pyrrole-1-carboxamide]	1 to 10		> 50	≥ 10	> 10	> 50	< 0.02			< 1		2 to 20	0.1 to 1			
CS(=O)(=O)Oc1cccc2[nH]c(C(=O)N3C[C@@H]4CCC[C@@H]4[C@H]3C(=O)N[C@@H](C[C@@H]3CCNC3=O)C(=O)CO)cc12 [Compound 155, 2-[(1S,3aR,6aS)-1-{[(2S)-4-hydroxy-3-oxo-1-[(3S)-2-oxopyrrolidin-3-yl]butan-2-yl]carbamoyl}-hexahydro-1H-cyclopenta[c]pyrrole-2-carbonyl]-1H-indol-4-yl methanesulfonate]	10 to 100		> 50	≥ 10	> 10	> 50	0.02 to 0.2	> 50					1 to 10			> 10

Source: patent US11952365B2, “Anti-viral compounds” (Aligos Therapeutics, Inc., priority 2020, dated 2024)
